Experimental data reported in patent US20240299481A1, “STEPHANIA CEPHARANTHA-DERIVED ALKALOID-CONTAINING PREPARATION” (JAPAN AS REPRESENTED BY DIRECTOR-GENERAL OF NATIONAL …, priority 2021, published 2024).

How the values were obtained:
[1] = tested on: VeroE6/TMPRSS2 cells; format: cell-based; details: 24 hours, FIG. 2A-2E
Description: VeroE6/TMPRSS2 cells were cultured at 37° C. in 5% of a CO2 atmosphere by using Dulbecco's Modified Eagle's Medium (DMEM, Life Technologies Corporation) added with 10% of a fetal bovine serum (FBS, Cell Culture Bioscience Corporation), 100 units/ml of penicillin, 100 μg/ml of streptomycin, 10 mM of HEPES (pH7.4) and 1 mg/ml of G418 disulfate (Nacalai Tesque, Inc.). In infection tests, it was changed to 2% of FBS and no G418 disulfate was added.
The Stephania cepharantha-derived alkaloid-containing preparation, Cepharanthine, Isotetrandrine, Cycleanine, or Berbamine were added to the medium of the VeroE6/TMPRSS2 cells and, and the cells cultured for 24 hours were fixed with 4% of paraformaldehyde, and nucleuses were stained with DAPI. Thereafter, the number of viable cells were measured using an ImageXpress Micro Confocal (Molecular Device, LLC).

[2] = tested on: Novel coronavirus SARS-COV-2 Wk-521 strains (Wuhan strain); format: cell-based; details: for antiviral effect compared with the preparation / other alkaloids: Wuhan strain, VeroE6/TMPRSS2 cells
[3] = tested on: SARS coronavirus; details: cited from earlier work
[4] = tested on: human coronavirus OC43 strain; details: early stage of infection in cells, MRC-5 human lung cells; cited from earlier work

SMILES | cytotoxic effect (number of viable cells with increasing addition concentration) [1] | antiviral effect (number of viral RNA with increasing addition concentration) [2] | antiviral effect compared with the preparation / other alkaloids [2] | antiviral effect against the SARS coronavirus [3] | antiviral effects on the human coronavirus OC43 strain [4]
COc1cc2c3cc1Oc1c(OC)c(OC)cc4c1[C@@H](Cc1ccc(O)c(c1)Oc1ccc(cc1)C[C@@H]3N(C)CC2)N(C)CC4 [Berbamine] | showed cytotoxic effects | showed antiviral effects | weak antiviral effect |  | 
COc1ccc2cc1Oc1ccc(cc1)C[C@H]1c3c(cc4c(c3Oc3cc5c(cc3OC)CCN(C)[C@@H]5C2)OCO4)CCN1C [Cepharanthine] | showed cytotoxic effects | showed antiviral effects | comparable to the Stephania cepharantha-derived alkaloid-containing preparation | has an antiviral effect | have antiviral effects
COc1cc2c3c(c1OC)Oc1ccc(cc1)C[C@@H]1c4c(cc(OC)c(OC)c4Oc4ccc(cc4)C[C@H]3N(C)CC2)CCN1C [Cycleanine] | showed cytotoxic effects | showed antiviral effects | comparable to the Stephania cepharantha-derived alkaloid-containing preparation |  | 
COc1ccc2cc1Oc1ccc(cc1)C[C@H]1c3cc(c(OC)cc3CCN1C)Oc1c(OC)c(OC)cc3c1[C@@H](C2)N(C)CC3 [Isotetrandrine] | showed cytotoxic effects | showed antiviral effects | comparable to the Stephania cepharantha-derived alkaloid-containing preparation |  | 
